Structures can show the parent of a compound that is named as a salt.
Experiments:
[1] = systemic regimens; nausea and vomiting, flushing, hypotension, tachycardia, hypokalemia, ST/T-wave changes, dizziness, dyspnea; cited from earlier work
contrast nephropathy = conditions: cited from earlier work
[2] = cited from earlier work
[3] = Intra-renal delivery of fenoldopam, renal artery blood flow; type: in vivo, human; conditions: intra-renal delivery at about 0.1 and about 0.2 mcg/kg/min
Method: At the time of the procedure, a switch to local delivery can easily be made with the previously described bifurcated catheter. […] Therefore another titration (in this situation most frequently migrating upward) is performed according to further embodiments, starting at the systemic dose, and moving towards a tolerated local dose, for the duration of the intended catheterization. Post-procedure, if the specialized bifurcated catheter is preferably to be removed, then the administration could be returned to a systemic dose, with or without additional hydration concurrently.

[4] = system: hypovolemic dogs receiving contrast; conditions: cited from earlier work
[5] = Local renal papaverine, renal blood flow in human subjects; type: in vivo; conditions: local renal doses of about 2 mg/min and about 3 mg/min

Row | Structure (SMILES) | frequency of common side effects other than headache [1] | efficacy in preventing contrast nephropathy, 0.2 vs 0.1 mcg/kg/min (contrast nephropathy; 0.2 mcg/kg/min compared with 0.1 mcg/kg/min) | benefit over saline (CONTRAST trial) (contrast nephropathy; 300 patients, 0.05-0.1 mcg/kg/min systemic IV over 12 hours) | renal function in high-risk patients undergoing contrast procedures (contrast nephropathy; small studies incl. randomized, double blind, placebo-controlled trial, 0.05-0.5 mcg/kg/min for 4-6 hours, started prior to contrast) | increase in renal blood flow from baseline ([2]; normal volunteers, 0.1 mcg/kg/min) | increment in renal blood flow ([2]; patients with a mean serum creatinine of 2.6 mg/dL, 0.1 mcg/kg/min) | renal vasodilation ([2]; systemic doses as low as approximately 0.01 through approximately 0.5 mcg/kg/min IV) | renal artery blood flow [3] | renal blood flow and renal function (glomerular filtration rate) [4] | renal blood flow rates [5]
1 | Oc1ccc(C2CNCCc3c2cc(O)c(O)c3Cl)cc1 (stereo not shown) [fenoldopam, fenoldopam mesylate] | ≤ 5% | greater efficacy | no benefit | attenuated worsening of renal function | approximately 40% | 16% | dose-dependent renal vasodilation | significant and immediate increases in renal artery blood flow | prevented reduction in both renal blood flow and renal function | –
2 | COc1ccc(Cc2nccc3cc(OC)c(OC)cc23)cc1OC [papaverine] | – | – | – | – | – | – | – | – | – | increase renal blood flow rates

Reference: patent US20070213686A1, “System and method for prevention of radiocontrast induced nephropathy” (priority 2003, published 2007)
